Patent publication US20250319139A1, “METHODS FOR TREATING NEUROINFLAMMATION” (University of Virginia Patent Foundation, priority 2021, published 2025)

How the values were obtained:
[1] = tested on: IL-17; experiment: ELISA of IL-17 in the serum; type: in vivo, mouse; conditions: mice without MCAO; 1 mg/kg by gastric gavage after each valeric sodium 100 mg/kg intraperitoneal injection, 7 days
Protocol: (§1) Mice were weighed and anesthetized with isoflurane at 24 h after MCAO. Blood samples were obtained from the right heart after thoracotomy. Blood was centrifuged (13,000 g, 4° C.) after it had been placed at 4° C. for 2 h for the collection of serum. After the collection of blood, mice were perfused with 4° C. saline for brain tissue harvesting. The cerebral cortex (anteroposterior: −1.5 to 2.5 mm, mediolateral: 1.0 to 3.0 mm) was dissected out. All dissection procedures were performed on ice.
(§2) IL-10, IL-17, IL-1β and IL-6 in the serum and brain were detected by using ELISA kits (catalog number: M1000B, M1700, MLB00C and D6050, R&D SYSTEM, Inc., Minneapolis, MN, USA) as we described before. The brain tissues were homogenized on ice in the RIPA buffer containing 25 mM Tris-HCl with pH 7.6, 150 mM NaCl, 1% sodium deoxycholate and 0.1% SDS (catalog number: 89901, Thermo Scientific, Rockford, IL, USA) and a protease inhibitor cocktail containing 10 mg/ml aproteinin, 5 mg/ml peptastin, 5 mg/ml leupetin and 1 mM phenylmethane sulfonylfluoride (catalog number: SRE0055, Sigma-Aldrich, St. Louis, MO, USA). The supernatant was collected for ELISA detection after being centrifuged for 20 min (13,000 g, 4° C.) and the protein concentration was determined by the BCA method. Cytokines in the serum and supernatant of brain were detected according to the manufacturer's instruction. The amount of IL-10, IL-17, IL-1β and IL-6 in each sample in the brain was normalized by its protein content.

[2] = tested on: IL-17; experiment: ELISA of IL-17 in the brain; type: in vivo, mouse; conditions: mice without MCAO; 1 mg/kg by gastric gavage after each valeric sodium 100 mg/kg intraperitoneal injection, 7 days
Protocol: as §1, §2

[3] = tested on: C57BL/6J mice; experiment: Novel object recognition test, young adult mice; type: in vivo, mouse; conditions: surgery mice; intracerebroventricular 10 μg/kg at 0, 24, 48 and 72 h after surgery; vs solvent
[4] = tested on: C57BL/6J mice; experiment: Barnes maze test, young adult mice; type: in vivo, mouse; conditions: surgery mice; intracerebroventricular 10 μg/kg at 0, 24, 48 and 72 h after surgery; vs solvent
[5] = tested on: gut microbiota; conditions: 300 mg/kg intraperitoneal once daily for 5 consecutive days; previous study [20]; cited from earlier work
[6] = tested on: C57BL/6J mice; experiment: Rotarod test after MCAO; type: in vivo, mouse; conditions: young mice, 100 mg/kg intraperitoneal 1 h before and 6 h after 120-min MCAO; 24 h after MCAO; vs saline
Protocol: (§3) As we described previously, left MCAO with intravascular suture technique was performed to mice. Briefly, mice were anesthetized with isoflurane and the rectal temperature was maintained at 37±0.5° C. by the feedback-controlled heating system. A monofilament nylon suture (catalog number: 1622-A1, Beijing CiNontech Co. Ltd., Beijing, China) was used to induce the MCAO via the external carotid artery to the left internal carotid artery until slight resistance was felt. Mice were re-anesthetized by isoflurane and the sutures were removed at 60 min (only for the set of experiments of old mice with fecal transplantation; this selection was because of a high mortality rate after a longer MCAO) or 120 min (for all other sets of experiments) after the onset of MCAO.
Rotarod test was performed to evaluate the motor coordination as we described before. All mice received the training for three continuous days before the induction of brain ischemia. The formal test was performed just 24 h before and 24 h after the MCAO. […] The latency and the speed were recorded when the tested mice fell off the rod. […] The speed-latency index, which is latency(s)×speed (rpm), was calculated. The ratio of mean index of the five trials obtained after MCAO and before MCAO was calculated to reflect the change in coordinate function of each mouse.

[7] = tested on: IL-1β; experiment: ELISA of IL-1β in the brain; type: in vivo, mouse; conditions: young mice, 100 mg/kg intraperitoneal 1 h before and 6 h after 120-min MCAO; 24 h after MCAO; vs saline
Protocol: as §2, with “Mice were weighed and anesthetized with isoflurane at 24 h after MCAO. Blood samples were obtained from the right heart after thoracotomy. Blood was centrifuged (13,000 g, 4° C.) after it had been placed at 4° C. for 2 h for the collection of serum. After the collection of blood, mice were perfused with 4° C. saline for brain tissue harvesting. The cerebral cortex (anteroposterior: -1.5 to 2.5 mm, mediolateral: 1.0 to 3.0 mm) was dissected out. All dissection procedures were performed on ice. IL-10,” for “IL-10,”, “[…],” for “peptastin,”, “The amount of IL-10, IL-17, IL-1β and IL-6 in each sample in the brain was normalized by its protein content.” left out

[8] = Valeric acid in the blood by ELISA (pilot dosage experiment); type: in vivo, mouse; conditions: young mice, 100 mg/kg intraperitoneal twice at an interval of 7 h; blood 3 h after second injection; pilot study
Protocol: A pilot experiment was performed to determine the dosage of valeric acid used in this study. Eight-week old mice were divided into two groups: Y-Saline group that received two intraperitoneal 100 μl normal saline injections at an interval of 7 h, and Y-Valeric group that received two intraperitoneal 100 mg/kg in 100 μl valeric sodium injections at an interval of 7 h. One group of 18-month old mice that was labeled O-Saline received two intraperitoneal 100 μl normal saline injections at an interval of 7 h. Blood was harvested 3 h after the second injection of valeric sodium or normal saline to measure valeric acid.
Valeric acid in the blood harvested from the experiment to determine the dosage of valeric acid injected intraperitoneally was measured by using an ELISA kit (catalog number: JM-12270M1, Jingmei Biotechnology, Jiangsu, China) following the manufacturer's instructions.

[9] = tested on: IL-6; experiment: ELISA of IL-6 in the brain; type: in vivo, mouse; conditions: young mice, 100 mg/kg intraperitoneal 1 h before and 6 h after 120-min MCAO; 24 h after MCAO; vs saline
Protocol: as §2, with “Mice were weighed and anesthetized with isoflurane at 24 h after MCAO. Blood samples were obtained from the right heart after thoracotomy. Blood was centrifuged (13,000 g, 4° C.) after it had been placed at 4° C. for 2 h for the collection of serum. After the collection of blood, mice were perfused with 4° C. saline for brain tissue harvesting. The cerebral cortex (anteroposterior: -1.5 to 2.5 mm, mediolateral: 1.0 to 3.0 mm) was dissected out. All dissection procedures were performed on ice. IL-10,” for “IL-10,”, “[…],” for “peptastin,”, “The amount of IL-10, IL-17, IL-1β and IL-6 in each sample in the brain was normalized by its protein content.” left out

[10] = tested on: C57BL/6J mice; experiment: Infarct volume after MCAO; type: in vivo, mouse; conditions: young mice, 100 mg/kg intraperitoneal 1 h before and 6 h after 120-min MCAO; 24 h after MCAO; vs saline
Protocol: As we described previously, left MCAO with intravascular suture technique was performed to mice. Briefly, mice were anesthetized with isoflurane and the rectal temperature was maintained at 37±0.5° C. by the feedback-controlled heating system. A monofilament nylon suture (catalog number: 1622-A1, Beijing CiNontech Co. Ltd., Beijing, China) was used to induce the MCAO via the external carotid artery to the left internal carotid artery until slight resistance was felt. […]
The infarct volumes were assessed 24 h after MCAO by a blinded investigator after 2,3,5-triphenyltetrazolium chloride staining. […] The average infarct area of the rostral and caudal sides of each slice was calculated. The infarct volume of the brain slice was calculated by multiplying the average infarct area of the slice by the thickness of the slice. […] To correct the cerebral edema and differential shrinkage resulting from brain ischemia and tissue processing, the corrected brain infarct volume was calculated: corrected brain infarct volume in percentage=[right hemisphere volume-(left hemisphere volume-left infarction volume)]×100/right hemisphere volume.

[11] = tested on: C57BL/6J mice; experiment: Neurological deficit scores after MCAO; type: in vivo, mouse; conditions: young mice, 100 mg/kg intraperitoneal 1 h before and 6 h after 120-min MCAO; 24 h after MCAO; vs saline
Protocol: as §3
Neurological deficit scores were tested 24 h after the stroke by a blinded investigator [25, 26]. Briefly, mice were scored as follows: zero, no apparent deficits; one, failure to extend right forepaw fully; two, decreased grip of the right forelimb; three, spontaneous movement in all directions, contralateral circling only if pulled by the tail; four, circling or walking to the right; five, walking only if stimulated; six, unresponsiveness to stimulation and with depressed level of consciousness; and seven, dead.

[12] = tested on: IL-6; experiment: IL-6 in the hippocampus by ELISA; type: in vivo, mouse; conditions: intracerebroventricular injection at surgery; hippocampus 48 h after surgery
Protocol: (§4) IL-1β, IL-6, C3 and GDNF in the hippocampus were detected by using ELISA kits. For testing the IL-1β, IL-6 and GDNF, brain tissues were homogenized on ice in the RIPA buffer containing 25 mM Tris-HCl with pH 7.6, 150 mM NaCl, 1% sodium deoxycholate, 0.1% SDS and a protease inhibitor cocktail containing 10 mg/ml aproteinin, 5 mg/ml peptastin, 5 mg/ml leupetin and 1 mM phenylmethane sulfonylfluoride. For C3 testing, brain tissues were homogenized on ice in the PTR buffer (supplied in the kit). The supernatant was collected for ELISA detection after the homogenate was centrifuged at 13,000 g for 20 min at 4° C. and the protein concentration was determined by the BCA protein assay (Bio-Rad, Hemel Hempstead, Herts, UK). IL-1β, IL-6, C3 and GDNF in supernatant of brain were detected according to the manufacturer's instruction for ELISA, and the amount of them in each sample in the brain was normalized by its total protein content and was expressed as pg/mg protein.

[13] = tested on: C3; experiment: C3 in the hippocampus by ELISA; type: in vivo, mouse; conditions: intracerebroventricular injection at surgery; hippocampus 48 h after surgery
Protocol: as §4

[14] = tested on: IL-1β; experiment: IL-1β in the hippocampus by ELISA; type: in vivo, mouse; conditions: intracerebroventricular injection at surgery; hippocampus 48 h after surgery
Protocol: as §4

Molecule: C[C@]1(C(=O)N(CCCC(=O)O)Cc2cccc(Cl)c2)CCN1C(=O)c1csc2ccccc12 [GLPG-0974]
- increase of IL-17 in the blood caused by valeric acid [1]: blocked the increase
- increase of IL-17 in the brain (cerebral cortex) caused by valeric acid [2]: blocked the increase

Molecule: NC(N)=NCCC[C@H](NC(=O)COCC(c1ccccc1)c1ccccc1)C(=O)O [SB290157]
- performance in novel object recognition test [3]: improved the performance
- time to identify target box in Barnes maze [4]: took less time

Molecule: Cc1nnc(SCC2=C(C(=O)O)N3C(=O)[C@@H](NC(=O)Cn4cnnn4)[C@H]3SC2)s1 [cefazolin]
- gut microbiota in the colon by 16S rRNA analyses [5]: almost undetectable level

Molecule: CCCCC(=O)[O-].[Na+] [valeric sodium]
- performance on rotarod [6]: poorer performance
- IL-1β in the ischemic penumbral brain tissues [7]: increased
- concentrations of valeric acid in the blood [8]: a level similar to that in the old mice
- IL-6 in the ischemic penumbral brain tissues [9]: increased
- infarct volume [10]: larger
- neurological deficit scores [11]: worse

B1: GDNF: recombinant mouse GDNF (glia-derived nerve factor) (protein, UniProt P48540 78-211, looked up)
Glial cell line-derived …: SPDKQAAALPRRERNRQAAAASPENSRGKGRRGQRGKNRGCVLTAIHLNVTDLGLGYETKEELIFRYCSGSCESAETMYDKILKNLSRSRRLTSDKVGQACCRPVAFDDDLSFLDDNLVYHILRKHSAKRCGCI
- IL-6 levels in the hippocampus after surgery [12]: reduced
- C3 levels in the hippocampus after surgery [13]: reduced
- IL-1β levels in the hippocampus after surgery [14]: reduced

B2: heat-inactivated GDNF: heat-denatured (5 min at 100° C.) GDNF solution (protein, UniProt P48540 78-211, looked up)
Glial cell line-derived …: SPDKQAAALPRRERNRQAAAASPENSRGKGRRGQRGKNRGCVLTAIHLNVTDLGLGYETKEELIFRYCSGSCESAETMYDKILKNLSRSRRLTSDKVGQACCRPVAFDDDLSFLDDNLVYHILRKHSAKRCGCI
modifications: heat-denatured
notes: heat-denatured (5 min at 100° C.) GDNF solution
- IL-6 levels in the hippocampus after surgery [12]: not
- C3 levels in the hippocampus after surgery [13]: not
